Where a name gives a salt, the structure may show the parent alone.
The compounds below were run against T1, MMP2 (gelatinase A) (Homo sapiens, UniProt P08253) (assay: In vitro inhibition of MMP2 (gelatinase A), fluorogenic peptide substrate). Details: APMA-activated recombinant human proMMP2; substrate 10 μM; 37° C.
T1 construct: made in house; host or cells: Tn insect cells, baculovirus (pFAST BAC 1)
T1 sequence (P08253 110-660): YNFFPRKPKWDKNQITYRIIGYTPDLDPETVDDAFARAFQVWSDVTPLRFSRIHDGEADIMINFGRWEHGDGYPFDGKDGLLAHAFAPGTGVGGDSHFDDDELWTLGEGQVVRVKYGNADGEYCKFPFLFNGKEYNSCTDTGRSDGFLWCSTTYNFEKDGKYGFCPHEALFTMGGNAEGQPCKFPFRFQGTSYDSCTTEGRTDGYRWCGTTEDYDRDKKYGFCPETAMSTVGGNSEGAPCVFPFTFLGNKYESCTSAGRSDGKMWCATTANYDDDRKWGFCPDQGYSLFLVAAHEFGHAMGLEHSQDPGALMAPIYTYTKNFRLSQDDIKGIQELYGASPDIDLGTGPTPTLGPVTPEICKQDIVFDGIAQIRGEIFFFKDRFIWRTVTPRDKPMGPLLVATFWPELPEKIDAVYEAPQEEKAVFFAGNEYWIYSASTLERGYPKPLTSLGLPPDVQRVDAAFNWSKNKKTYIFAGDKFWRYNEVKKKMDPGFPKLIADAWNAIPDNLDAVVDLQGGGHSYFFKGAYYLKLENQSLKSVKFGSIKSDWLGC
Assay type: biochemical
Experimental: The inhibitory activities of compounds of formula I on MT1-MMP, MMP1 (collagenase 1) and MMP2 (gelatinase A) can be determined as follows:
Stock solutions of substrate (MCA-Pro-Leu-Gly-Leu-Dpa-Ala-Arg-NH2, Knight, C. G., Willenbrock, F., Murphy, G., A novel coumarin-labelled peptide for sensitive continuous assays of the matrix metalloproteinases, FEBS lett., 296, 263-266, (1992)), are prepared in 100% DMSO at a concentration 1.0 mM. Stock solutions of inhibitors are prepared in 100% DMSO. The inhibitor is diluted into the assays from a solution in 100% DMSO, and controls substitute an equal volume of DMSO so that the final DMSO concentration from inhibitor and substrate dilutions in all assays is 6.0%. Assays are performed in assay buffer (150 mM NaCl, 10 mM CaCl2, 50 mM Tris-Cl pH7.5, 0.05% Brij-35) containing 6.0% DMSO once the substrate and inhibitor are diluted into it. The substrate concentration used in the assays is 10 μM. The test is carried out at 37° C. The fluorescence changes are monitored using an excitation wavelength of 320 nm and an emission wavelength of […]. The reaction mixture is added in duplicate to appropriate wells of a 96 well microfluor plate. The reaction mixture is preincubated with the inhibitor for 30 min, the reaction is started by the addition of MMP enzyme and the fluorescence intensity is measured for 10 min. A time point that is on a linear part of the curve is chosen to determine the activity. The inhibition results are expressed as the inhibitor concentrations that produced 50% inhibition (IC50) of the activity in the control (non-inhibited) reaction. In this test, the compounds of the formula I and their pharmacologically acceptable salts have an inhibiting concentration IC50 [μmol/litre] of 0.0001 and 0.030, usually of 0.0002 to 0.010, for MMP2 and an inhibiting concentration IC50 [μmol/litre] of 0.0005 and 0.125, usually of 0.001 to 0.05, for MT1-MMP.
Plasmid: The cDNA for human proMMP2 is supplied by Prof. Motoharu Seiki, Institute of Medical Science, The University of Tokyo. The cDNA encoding a full length on human pro-MMP2 is generated by PCR of cDNA derived from RNA isolated from human HT1080 cells (ATCC# CCL121). The primers to generate this cDNA are GAATTCGATGGAGGCG CTAATGGCCCGG and […] corresponding to full length human pro-MMP2 of the reported cDNA sequence, GenBank accession number J03210. The resulting 2.0 Kb PCR fragment is cloned into EcoR1/Xho 1 site of pFAST BAC 1 vector (pBAC-MMP2) (Collier, I. E., Wilhelm, S. M., Eisen, A. Z., Manner, B. L., Grant, G. A., Seltzer, J. L., Kronberger, A., He, C., Bauer, E. A. and Goldberg, G. I. J. Biol. Chem., 263:6579-6587, 1988).
Expression and Purification: For baculovirus expression of r-proMMP2, pBAC-MMP2 is transformed into DH10BAC competent cells to produce a r-proMMP2 bacmid DNA. The recombinant bacmid DNA is transfected into cultured insect cells (Tn cells) with Cellfectin reagent (Gibco BRL). Recombinant baculovirus are plaque purified to homogeneity and are used to generate high titer stocks of the recombinant baculovirus. Expression of r-proMMP2 is confirmed by gelatin zymography.
Culture fluids of Tn cells infected with baculovirus are centrifuged and filtrated through a […] pore size filter to remove cell debris. The recombinant proMMP2 as absorbed to gelatin Sepharose 4B (Pharmacia Biotech) in equilibration buffer of in 25 mM Tris-HCl (pH 7.5), 1 M NaCl, 10 mM CaCl2, 0.05% Briji 35 at 4° C. After washing the beads with equilibration buffer, r-proMMP2 as eluted with equilibration buffer containing 10% DMSO. The enzyme are stored at 4° C. until activation. For assay, the purified proMMP2 is activated with 1 mM APMA for 1 hr at 37° C.

| Compound | IC50 [nM] |
| --- | --- |
| 2-[(Cyclopropylmethoxy-benzenesulfonyl)-(4-[1,2,4]triazol-1-yl-benzyl)-amino]-N-hydroxyacetamide-hydrochloride salt [Example 82b] | 10.4 |
| COc1ccc(CN(CC(=O)NO)S(=O)(=O)c2ccc(OCCCCl)cc2)cc1 [Example 68, 2-{[4-(3-chloro-propoxy)-benzenesulfonyl]-(4-methoxy-benzyl)amino}-N-hydroxy-acetamide] | 0.7 |
| C#CCOc1ccc(S(=O)(=O)N(CC(=O)NO)Cc2ccc(OC)cc2)cc1 [Example 75, [(4-methoxy-benzyl)-[4-prop-2-ynyloxy-benzenesulfonyl]-amino]-N-hydroxy-acetamide] | 1 |
| C=CCCOc1ccc(S(=O)(=O)N(CC(=O)NO)Cc2ccc(-n3cncn3)cc2)cc1 [Example 79, 2-[(4-but-3-enyloxy-benzenesulfonyl)-(4-[1,2,4]triazol-1-yl-benzyl)-amino]-N-hydroxy-acetamide-hydrochloride salt] | 0.2 |
| C=CCCOc1ccc(S(=O)(=O)N(CC(=O)NO)Cc2ccc(-n3ccnc3)cc2)cc1 [Example 80, 2-[(4-But-3-enyloxy-benzenesulfonyl)-(4-imidazol-1-yl-benzyl)-amino]-N-hydroxy-acetamide-hydrochloride] | 8 |
| C=CCCOc1ccc(S(=O)(=O)N(CC(=O)NO)Cc2ccc(N3CCOCC3)cc2)cc1 [Example 81, 2-[(4-But-3-enyloxy-benzenesulfonyl)-(4-morpholin-4-yl-benzyl)-amino]-N-hydroxy-acetamide-hydrochloride] | 10.4 |
| O=C(CN(Cc1ccc(-n2cncn2)cc1)S(=O)(=O)c1ccc(OCCC2CC2)cc1)NO [Example 82a] | 40.2 |
| O=C(CN(Cc1ccc(-n2cncn2)cc1)S(=O)(=O)c1ccc(OCc2ccoc2)cc1)NO [Example 82c] | 5.3 |

Further lines, results first:

| IC50 [nM] | Compound |
| --- | --- |
| 2.1 | C=CCCOc1ccc(S(=O)(=O)N(CC(=O)NO)Cc2cccc(F)n2)cc1 [Example 83a, 2-([4-But-3-enyloxy-benzenesulfonyl]-(6-fluoro-pyridine-2-yl)methyl-amino)-N-hydroxyacetamide] |
| 14.7 | C=CCCOc1ccc(S(=O)(=O)N(CC(=O)NO)Cc2ccc(N3CCCC3)cc2)cc1 [Example 84a, 2-[(4-But-3-enyloxy-benzenesulfonyl)-(4-(pyrrolidin-1-yl)-benzyl)-amino]-N-hydroxyacetamide-hydrochloride] |
